This note sets out measurements from PubChem BioAssay AID220 (DTP/NCI, 2004).

Values joined by “and” are separate entries in the source; they are usually repeats but may differ in a detail not shown here. Equal entries are not always repeated. Inconclusive results are not listed.

This assay concerns CD8F1 mice, subcutaneous mammary adenocarcinoma, T/C%. Description: NCI In Vivo Anticancer Drug Screen. Data for tumor model Mammary Adenocarcinoma CD8F1 (subcutaneous) in CD8F1. Particulars: higher = larger tumour. The gist of the method: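 Compound-treated versus vehicle-treated mice with transplantable tumors; survival or tumor size compared as T/C.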
The mark [1] stands for this setting: endpoint: median tumor weight (est.), dose: 25.0 mg/kg/injection, schedule: Q07DX005 (ip), vehicle: Klucel (hydroxypropylcellulose) (HPC).
Where [2] appears, read: endpoint: median tumor weight change, dose: 100.0 mg/kg/injection, schedule: Q01DX001 (ip), vehicle: saline with Tween-80.
The mark [3] stands for this setting: endpoint: median tumor weight change, dose: 62.5 mg/kg/injection, schedule: Q01DX001 (ip), vehicle: saline with Tween-80.
[4] abbreviates: endpoint: median tumor weight change, dose: 125.0 mg/kg/injection, schedule: Q01DX001 (ip), vehicle: saline with Tween-80.
Setting [5] is: endpoint: median tumor weight change, dose: 250.0 mg/kg/injection, schedule: Q01DX001 (ip), vehicle: saline with Tween-80.
[6] abbreviates: endpoint: median tumor weight change, dose: 500.0 mg/kg/injection, schedule: Q01DX001 (ip), vehicle: saline with Tween-80.
Where [7] appears, read: endpoint: median tumor weight change, dose: 1000.0 mg/kg/injection, schedule: Q01DX001 (ip), vehicle: saline with Tween-80.
The mark [8] stands for this setting: endpoint: median tumor weight (est.), dose: 6.25 mg/kg/injection, schedule: Q07DX005 (ip), vehicle: Klucel (hydroxypropylcellulose) (HPC).
Where [9] appears, read: endpoint: median tumor weight (est.), dose: 25.0 mg/kg/injection, schedule: Q07DX005 (ip), vehicle: saline with Tween-80.
Where [10] appears, read: endpoint: median tumor weight (est.), dose: 50.0 mg/kg/injection, schedule: Q07DX005 (ip), vehicle: saline with Tween-80.

For the compound `O=S(=O)(SC(S(=O)(=O)c1ccccc1)S(=O)(=O)c1ccccc1)c1ccccc1`, the T/C is 55 % of control under setting [1]; 90 % of control (endpoint: median tumor weight (est.), dose: 50.0 mg/kg/injection, schedule: Q07DX005 (ip), vehicle: Klucel (hydroxypropylcellulose) (HPC)); 112 % of control (endpoint: median tumor weight (est.), dose: 200.0 mg/kg/injection, schedule: Q07DX005 (ip), vehicle: Klucel (hydroxypropylcellulose) (HPC)); 70 % of control (endpoint: median tumor weight (est.), dose: 400.0 mg/kg/injection, schedule: Q07DX005 (ip), vehicle: Klucel (hydroxypropylcellulose) (HPC)).
Take `O=C(CN1CCOCC1)Nc1nc(-c2ccc(Cl)cc2)cs1`: the T/C runs as follows: (endpoint: median tumor weight change, dose: 50.0 mg/kg/injection, schedule: Q01DX001 (ip), vehicle: saline with Tween-80) 47 % of control; under setting [2], 20 % of control; (endpoint: median tumor weight change, dose: 200.0 mg/kg/injection, schedule: Q01DX001 (ip), vehicle: saline with Tween-80) 49 % of control; (endpoint: median tumor weight change, dose: 400.0 mg/kg/injection, schedule: Q01DX001 (ip), vehicle: saline with Tween-80) 35 % of control; (endpoint: median tumor weight change, dose: 800.0 mg/kg/injection, schedule: Q01DX001 (ip), vehicle: saline with Tween-80) 28 % of control.
Take `Nc1nc2ccc(NCc3ccc(C(=O)NC(CCC(=O)O)C(=O)O)cc3)cc2c(=O)[nH]1` (centres undefined): the T/C was 115 % of control (endpoint: median tumor weight change, dose: 25.0 mg/kg/injection, schedule: Q01DX001 (ip), vehicle: saline with Tween-80) and 68 % of control under setting [2].
`C/C=C1\C[C@@H]2C(OC)Nc3cc(O)c(OC)cc3C(=O)N2C1` (some centres undefined): the T/C (endpoint: median tumor weight change, dose: 0.06 mg/kg/injection, schedule: Q01DX001 (ip), vehicle: saline) was 105 % of control; the T/C (endpoint: median tumor weight change, dose: 0.12 mg/kg/injection, schedule: Q01DX001 (ip), vehicle: saline) is 96 % of control; the T/C (endpoint: median tumor weight change, dose: 0.25 mg/kg/injection, schedule: Q01DX001 (ip), vehicle: saline) is 105 % of control; the T/C (endpoint: median tumor weight change, dose: 0.31 mg/kg/injection, schedule: Q01DX001 (ip), vehicle: suspension in saline) is 76 % of control; the T/C (endpoint: median tumor weight change, dose: 0.5 mg/kg/injection, schedule: Q01DX001 (ip), vehicle: saline) was 90 % of control; the T/C (endpoint: median tumor weight change, dose: 0.62 mg/kg/injection, schedule: Q01DX001 (ip), vehicle: suspension in saline) is 53 % of control. Moreover, the T/C by setting is: (endpoint: median tumor weight change, dose: 1.0 mg/kg/injection, schedule: Q01DX001 (ip), vehicle: saline) 92 % of control; (endpoint: median tumor weight change, dose: 1.25 mg/kg/injection, schedule: Q01DX001 (ip), vehicle: suspension in saline) 43 % of control; (endpoint: median tumor weight change, dose: 2.0 mg/kg/injection, schedule: Q01DX001 (ip), vehicle: saline) 42 % of control.
With `COc1ccc2c(ccc3oc([N+](=O)[O-])cc32)c1`, the T/C was 77 % of control under setting [3]; 63 % of control under setting [4]; 76 % of control under setting [5]; 86 % of control under setting [6]; 56 % of control under setting [7].
As to `CCOC(=O)Nc1cc2c(c(N)n1)N=C(CN(C)c1ccccc1)CN2`, the T/C (endpoint: median tumor weight (est.), dose: 3.12 mg/kg/injection, schedule: Q07DX005 (ip), vehicle: Klucel (hydroxypropylcellulose) (HPC)) is 268 % of control; the T/C under setting [8] is 70 % of control; the T/C under setting [1] is 69 % of control and 79 % of control.
On to `CCCCCC1c2cc(O)ccc2OC1N1CCOCC1` (centres undefined), for which the T/C under setting [5] was 204 % of control and 73 % of control.
As to `CC(/C=N/N=C(N)N)=N\N=C(N)N`, the T/C by setting is: (endpoint: median tumor weight (est.), dose: 6.25 mg/kg/injection, schedule: Q07DX005 (ip), vehicle: saline) 100 % of control; (endpoint: median tumor weight (est.), dose: 12.5 mg/kg/injection, schedule: Q07DX005 (ip), vehicle: saline) 85 % of control; (endpoint: median tumor weight (est.), dose: 25.0 mg/kg/injection, schedule: Q07DX005 (ip), vehicle: saline) 110 % of control; (endpoint: median tumor weight (est.), dose: 100.0 mg/kg/injection, schedule: Q07DX005 (ip), vehicle: saline) 67 % of control.
On to `COc1cc([C@@H]2c3cc4c(c(O)c3C[C@H]3COC(=O)[C@@H]32)OCO4)cc(OC)c1O`, for which the T/C runs as follows: (endpoint: median tumor weight (est.), dose: 0.5 mg/kg/injection, schedule: Q07DX005 (ip), vehicle: saline) 275 % of control; (endpoint: median tumor weight (est.), dose: 1.0 mg/kg/injection, schedule: Q07DX005 (ip), vehicle: saline) 85 % of control; (endpoint: median tumor weight (est.), dose: 2.0 mg/kg/injection, schedule: Q07DX005 (ip), vehicle: saline) 56 % of control; (endpoint: median tumor weight (est.), dose: 4.0 mg/kg/injection, schedule: Q07DX005 (ip), vehicle: saline) 26 % of control; (endpoint: median tumor weight (est.), dose: 8.0 mg/kg/injection, schedule: Q07DX005 (ip), vehicle: saline) 27 % of control.
Take `CNC(=O)n1c(N)nc(-c2ccccc2)c1-c1ccccc1`: the T/C (endpoint: median tumor weight change, dose: 31.25 mg/kg/injection, schedule: Q01DX001 (ip), vehicle: saline with Tween-80) was 93 % of control; the T/C under setting [3] was 92 % of control; the T/C under setting [4] was 79 % of control.
For `OC1CCCC2CCCNC12` (centres undefined), the T/C was 206 % of control (endpoint: median tumor weight (est.), dose: 6.25 mg/kg/injection, schedule: Q07DX005 (ip), vehicle: saline with Tween-80); 102 % of control (endpoint: median tumor weight (est.), dose: 12.5 mg/kg/injection, schedule: Q07DX005 (ip), vehicle: saline with Tween-80); 171 % of control under setting [9]; 73 % of control under setting [10].
For `CC(=O)C1=C(O)C2(O)C(=O)c3c(c(C)c4ccc(C)c(O)c4c3O)CC2C(N)C1=O` (centres undefined), the T/C runs as follows: (endpoint: median tumor weight change, dose: 37.5 mg/kg/injection, schedule: Q01DX001 (ip), vehicle: saline + alcohol) 72 % of control; (endpoint: median tumor weight change, dose: 38.0 mg/kg/injection, schedule: Q01DX001 (ip), vehicle: saline + alcohol) 100 % of control; (endpoint: median tumor weight change, dose: 75.0 mg/kg/injection, schedule: Q01DX001 (ip), vehicle: saline + alcohol) 46 % of control and 60 % of control; (endpoint: median tumor weight change, dose: 150.0 mg/kg/injection, schedule: Q01DX001 (ip), vehicle: saline + alcohol) 49 % of control.
On to `CCN=C=NCCCN(C)C`, for which the T/C runs as follows: (endpoint: median tumor weight change, dose: 3.9 mg/kg/injection, schedule: Q01DX001 (ip), vehicle: saline) 115 % of control; (endpoint: median tumor weight change, dose: 7.81 mg/kg/injection, schedule: Q01DX001 (ip), vehicle: saline) 112 % of control; (endpoint: median tumor weight change, dose: 15.63 mg/kg/injection, schedule: Q01DX001 (ip), vehicle: saline) 92 % of control; (endpoint: median tumor weight change, dose: 31.25 mg/kg/injection, schedule: Q01DX001 (ip), vehicle: saline) 109 % of control; (endpoint: median tumor weight change, dose: 62.5 mg/kg/injection, schedule: Q01DX001 (ip), vehicle: saline) 67 % of control.
In the case of `COc1ccc(C(N)=O)cc1N=NN(C)C`, the T/C under setting [8] is 175 % of control.
Consider `N#CC(=C1C=CC(=NO)C=C1)c1ccc(Cl)cc1`, for which the T/C is 36 % of control and 52 % of control (endpoint: mean tumor weight, dose: 100.0 mg/kg/injection, schedule: Q07DX006 (ip), vehicle: saline with Tween-80); 19 % of control and 26 % of control (endpoint: mean tumor weight, dose: 200.0 mg/kg/injection, schedule: Q07DX006 (ip), vehicle: saline with Tween-80); 7 % of control and 10 % of control (endpoint: mean tumor weight, dose: 400.0 mg/kg/injection, schedule: Q07DX006 (ip), vehicle: saline with Tween-80); 98 % of control under setting [9]; 63 % of control under setting [10]; 58 % of control (endpoint: median tumor weight (est.), dose: 100.0 mg/kg/injection, schedule: Q07DX005 (ip), vehicle: saline with Tween-80). For the same compound, the T/C reads like this: (endpoint: median tumor weight (est.), dose: 200.0 mg/kg/injection, schedule: Q07DX005 (ip), vehicle: saline with Tween-80) 57 % of control; (endpoint: median tumor weight (est.), dose: 400.0 mg/kg/injection, schedule: Q07DX005 (ip), vehicle: saline with Tween-80) 36 % of control; under setting [3], 92 % of control; under setting [4], 88 % of control; under setting [5], 70 % of control; under setting [6], 28 % of control. Besides, the T/C under setting [7] is 26 % of control.
With `O=c1ccc2ccccc2o1`, under “endpoint: median tumor weight change, dose: 125.0 mg/kg/injection, schedule: Q01DX001 (ip), vehicle: Klucel (hydroxypropylcellulose) (HPC)”, the T/C was 90 % of control.
